Drawing on publication PMC6332036, “The Guareschi Pyridine Scaffold as a Valuable Platform for the Identification of Selective PI3K Inhibitors” (Molecules, 2015), this text covers IC50 and melting point for nine molecules.

For orientation: IC50 means the concentration that gives 50% inhibition. Broadly, the melting point is the temperature, or range, at which the solid turns liquid.

The target of data set [1] is T1, PI3Kα (Homo sapiens, UniProt P42336).
T1 construct: purchased JenaBioscience PR-335
Kind of data set: ADP-Glo luminescent lipid kinase assay, PI3Kα. The format is biochemical. The following applies: recombinant enzyme 30 ng, 10 μM ATP, 30 min, room temperature; standard error (SE). The protocol: (§1) All the synthesized compounds were then tested in vitro for their ability to inhibit the kinase activity of the PI3Kα, PI3Kβ, PI3Kγ, and PI3Kδ isoforms in a luminescent kinase assay (ADP-GloTM kinase assay) using purified, recombinant human enzymes and ATP. IC50 values were subsequently determined.
(§2) To evaluate the ability of each compound of formula (9a–h) to inhibit the lipid kinase activity of each PI3K isoform, 30 ng of PI3Kα, β, γ, and δ recombinant protein (purchased from JenaBioscience—Jena, Germany; PI3Kα #PR-335, PI3Kβ #PR-344, PI3Kγ #PR-343, PI3Kδ #PR-345) were incubated with at least five different concentrations (from 0.016 to 10 µM) of the compounds (9a–h). The phosphorylation reaction was then started by adding 10 μM of ATP, and 10 µg of lipid micelles containing the appropriate substrate phosphatidylinositol and the phosphatidylserine.
(§3) After 30 min of incubation (1 h for PI3Kβ recombinant protein) at room temperature, the reaction was stopped, and the amount of ADP metabolite was measured with a luminescent kinase assay, ADP-GloTM Kinase Assay (purchased from Promega—USA #V9101). The luminescent signal positively correlated with the formed ADP and, therefore, with the kinase activity. The percentage of kinase activity was calculated over the control samples, containing only dimethyl sulfoxide (DMSO). To derive the IC50 values for each assayed compound (9a–h), all data were plotted on a dose response curve (Graph Pad Software) and the IC50 was calculated by using the nonlinear regression fit (equation (log agonist) vs. response—Sigmoidal dose response). The IC50 was representative of two different experiments performed in triplicate.

Data set [2] deals with T2, PI3Kβ (Homo sapiens, UniProt P42338).
T2 construct: purchased JenaBioscience PR-344
Kind of data set: ADP-Glo luminescent lipid kinase assay, PI3Kβ. The class given is biochemical. Conditions: recombinant enzyme 30 ng, 10 μM ATP, 1 h, room temperature; standard error (SE). The protocol: as §1, §2, §3
On the technique in general: ADP-Glo turns the ADP formed in a reaction into a luminescent signal.

The target in data set [3] is T3, PI3Kγ (Homo sapiens, UniProt P48736).
T3 construct: purchased JenaBioscience PR-343
Kind of data set: ADP-Glo luminescent lipid kinase assay, PI3Kγ. The format is biochemical. The following applies: recombinant enzyme 30 ng, 10 μM ATP, 30 min, room temperature; standard error (SE). The protocol: as §1, §2, §3

The target in data set [4] is T4, PI3Kδ (Homo sapiens, UniProt O00329).
T4 construct: purchased JenaBioscience PR-345
Kind of data set: ADP-Glo luminescent lipid kinase assay, PI3Kδ. The class given is biochemical. Conditions: recombinant enzyme 30 ng, 10 μM ATP, 30 min, room temperature; standard error (SE). The protocol:
as §1, §2, §3

The subject of data set [5] is PI3Kα signaling pathway. In words: Cell-based assay: P-Akt in insulin-stimulated NIH3T3 cells (Western blot). The following applies: Mus musculus, 1.5 h pre-treatment, 5 min stimulation with 1 μM insulin, SE ± 0.6, read-out: IC50, residual P-Akt. How it is done:
Subsequently, compound 9b was analyzed on cell-based assay in order to evaluate its ability to inhibit the PI3Kα signaling pathway on cells. It is well established that insulin signaling is mostly regulated by PI3Kα [29]. The activated insulin receptor triggers PI3Kα activity mainly by binding and phosphorylating adaptor proteins of the IRS (insulin receptor substrate) family. Once activated, PI3Kα produces the PtdIns(3,4,5)P3 lipid product, which in turn mediates the activation of downstream effectors such as Akt. Thus, phosphorylation of Akt results as a key event of the PI3Kα activation. […] A dose response curve and an IC50 value were determined.
NIH3T3 cells were cultured in […] (DMEM) (GIBCO-Thermo Fisher Scientific Inc., Waltham, MA, USA) supplemented with 10% Fetal Bovine Serum (FBS) (GIBCO-Thermo Fisher Scientific Inc.), 100 units/mL penicillin (GIBCO-Thermo Fisher Scientific Inc.), and 100 μg/mL streptomycin (GIBCO- Thermo Fisher Scientific Inc.). […] The P-Akt production is detected by Western blot analysis and quantified with ChemiDoc™ XRS system. From the absolute values, a percentage of residual P-Akt is calculated for each inhibitor concentration by using the control vehicle as 100%. […]

T2 sequence (P42338 whole entry): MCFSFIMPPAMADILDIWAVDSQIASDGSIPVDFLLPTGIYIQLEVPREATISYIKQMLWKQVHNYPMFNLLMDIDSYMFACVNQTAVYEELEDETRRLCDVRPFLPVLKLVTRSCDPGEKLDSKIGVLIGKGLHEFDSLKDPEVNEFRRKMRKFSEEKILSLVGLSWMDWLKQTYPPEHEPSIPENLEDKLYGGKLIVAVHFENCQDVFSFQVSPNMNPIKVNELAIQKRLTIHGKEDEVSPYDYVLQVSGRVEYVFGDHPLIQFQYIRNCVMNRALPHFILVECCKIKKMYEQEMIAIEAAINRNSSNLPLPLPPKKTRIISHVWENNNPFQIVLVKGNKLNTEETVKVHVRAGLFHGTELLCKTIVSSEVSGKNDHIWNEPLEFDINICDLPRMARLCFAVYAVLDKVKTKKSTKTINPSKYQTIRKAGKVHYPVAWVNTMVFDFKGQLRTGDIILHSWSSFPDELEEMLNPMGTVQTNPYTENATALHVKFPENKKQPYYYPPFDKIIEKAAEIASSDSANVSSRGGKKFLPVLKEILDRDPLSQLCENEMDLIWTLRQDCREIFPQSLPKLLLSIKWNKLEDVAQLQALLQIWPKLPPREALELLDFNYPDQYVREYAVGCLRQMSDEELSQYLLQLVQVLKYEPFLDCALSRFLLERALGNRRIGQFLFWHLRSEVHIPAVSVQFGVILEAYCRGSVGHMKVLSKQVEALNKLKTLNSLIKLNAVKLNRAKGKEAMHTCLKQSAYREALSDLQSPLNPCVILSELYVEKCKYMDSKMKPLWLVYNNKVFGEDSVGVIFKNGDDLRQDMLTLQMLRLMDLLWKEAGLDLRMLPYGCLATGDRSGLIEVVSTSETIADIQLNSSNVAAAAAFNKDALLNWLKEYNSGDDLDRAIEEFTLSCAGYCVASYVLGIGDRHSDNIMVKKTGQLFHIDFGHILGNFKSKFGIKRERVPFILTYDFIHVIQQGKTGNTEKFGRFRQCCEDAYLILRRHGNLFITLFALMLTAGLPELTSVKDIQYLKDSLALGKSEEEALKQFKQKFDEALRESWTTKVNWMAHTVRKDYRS
T2 sequence (P27986 whole entry partner): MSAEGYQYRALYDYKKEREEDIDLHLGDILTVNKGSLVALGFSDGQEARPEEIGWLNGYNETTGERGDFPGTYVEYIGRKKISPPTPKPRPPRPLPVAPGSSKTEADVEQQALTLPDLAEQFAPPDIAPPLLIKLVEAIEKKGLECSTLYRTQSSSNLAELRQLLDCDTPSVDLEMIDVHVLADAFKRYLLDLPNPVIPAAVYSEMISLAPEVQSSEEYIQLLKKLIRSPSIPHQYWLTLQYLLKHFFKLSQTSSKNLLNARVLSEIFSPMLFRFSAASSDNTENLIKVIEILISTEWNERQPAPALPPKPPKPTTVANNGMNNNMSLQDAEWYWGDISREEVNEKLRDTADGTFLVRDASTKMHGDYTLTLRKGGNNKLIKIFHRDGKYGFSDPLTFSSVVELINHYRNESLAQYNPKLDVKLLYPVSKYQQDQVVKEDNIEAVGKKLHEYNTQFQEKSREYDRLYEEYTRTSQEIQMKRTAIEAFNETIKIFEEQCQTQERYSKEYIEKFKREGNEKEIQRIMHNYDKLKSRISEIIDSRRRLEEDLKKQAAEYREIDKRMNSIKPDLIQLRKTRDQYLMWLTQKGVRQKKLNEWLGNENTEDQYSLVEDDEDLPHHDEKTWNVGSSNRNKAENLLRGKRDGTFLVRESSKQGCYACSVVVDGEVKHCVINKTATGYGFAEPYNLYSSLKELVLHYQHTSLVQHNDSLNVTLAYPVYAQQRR
T3 sequence (P48736 whole entry): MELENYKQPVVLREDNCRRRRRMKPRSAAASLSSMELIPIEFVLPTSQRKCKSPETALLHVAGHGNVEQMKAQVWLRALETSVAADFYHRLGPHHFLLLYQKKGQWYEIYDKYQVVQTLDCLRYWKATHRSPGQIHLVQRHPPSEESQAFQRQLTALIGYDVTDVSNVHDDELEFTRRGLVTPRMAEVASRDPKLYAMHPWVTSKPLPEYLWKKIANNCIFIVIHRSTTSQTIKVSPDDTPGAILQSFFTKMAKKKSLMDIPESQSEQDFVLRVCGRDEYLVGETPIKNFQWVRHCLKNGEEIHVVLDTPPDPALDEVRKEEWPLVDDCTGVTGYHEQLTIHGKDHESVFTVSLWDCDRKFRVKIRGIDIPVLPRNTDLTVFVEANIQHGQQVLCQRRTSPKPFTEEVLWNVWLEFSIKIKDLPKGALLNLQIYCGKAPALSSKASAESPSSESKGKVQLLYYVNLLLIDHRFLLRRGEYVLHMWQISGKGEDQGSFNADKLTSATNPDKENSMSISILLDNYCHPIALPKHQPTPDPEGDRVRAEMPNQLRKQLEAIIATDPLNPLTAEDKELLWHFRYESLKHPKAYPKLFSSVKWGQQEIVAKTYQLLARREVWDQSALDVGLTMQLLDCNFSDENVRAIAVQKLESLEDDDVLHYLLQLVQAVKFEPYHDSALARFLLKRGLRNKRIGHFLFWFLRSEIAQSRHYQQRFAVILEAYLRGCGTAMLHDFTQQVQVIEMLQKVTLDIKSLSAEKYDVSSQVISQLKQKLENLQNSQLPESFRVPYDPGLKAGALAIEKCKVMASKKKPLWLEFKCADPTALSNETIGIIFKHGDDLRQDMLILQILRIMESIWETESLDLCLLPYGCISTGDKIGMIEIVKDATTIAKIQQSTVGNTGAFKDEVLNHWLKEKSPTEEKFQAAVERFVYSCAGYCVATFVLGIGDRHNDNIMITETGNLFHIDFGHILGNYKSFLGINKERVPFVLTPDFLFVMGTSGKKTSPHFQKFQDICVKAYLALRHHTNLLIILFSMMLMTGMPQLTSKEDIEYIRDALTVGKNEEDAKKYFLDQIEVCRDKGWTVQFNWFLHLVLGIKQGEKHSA
T1 sequence (P42336 whole entry): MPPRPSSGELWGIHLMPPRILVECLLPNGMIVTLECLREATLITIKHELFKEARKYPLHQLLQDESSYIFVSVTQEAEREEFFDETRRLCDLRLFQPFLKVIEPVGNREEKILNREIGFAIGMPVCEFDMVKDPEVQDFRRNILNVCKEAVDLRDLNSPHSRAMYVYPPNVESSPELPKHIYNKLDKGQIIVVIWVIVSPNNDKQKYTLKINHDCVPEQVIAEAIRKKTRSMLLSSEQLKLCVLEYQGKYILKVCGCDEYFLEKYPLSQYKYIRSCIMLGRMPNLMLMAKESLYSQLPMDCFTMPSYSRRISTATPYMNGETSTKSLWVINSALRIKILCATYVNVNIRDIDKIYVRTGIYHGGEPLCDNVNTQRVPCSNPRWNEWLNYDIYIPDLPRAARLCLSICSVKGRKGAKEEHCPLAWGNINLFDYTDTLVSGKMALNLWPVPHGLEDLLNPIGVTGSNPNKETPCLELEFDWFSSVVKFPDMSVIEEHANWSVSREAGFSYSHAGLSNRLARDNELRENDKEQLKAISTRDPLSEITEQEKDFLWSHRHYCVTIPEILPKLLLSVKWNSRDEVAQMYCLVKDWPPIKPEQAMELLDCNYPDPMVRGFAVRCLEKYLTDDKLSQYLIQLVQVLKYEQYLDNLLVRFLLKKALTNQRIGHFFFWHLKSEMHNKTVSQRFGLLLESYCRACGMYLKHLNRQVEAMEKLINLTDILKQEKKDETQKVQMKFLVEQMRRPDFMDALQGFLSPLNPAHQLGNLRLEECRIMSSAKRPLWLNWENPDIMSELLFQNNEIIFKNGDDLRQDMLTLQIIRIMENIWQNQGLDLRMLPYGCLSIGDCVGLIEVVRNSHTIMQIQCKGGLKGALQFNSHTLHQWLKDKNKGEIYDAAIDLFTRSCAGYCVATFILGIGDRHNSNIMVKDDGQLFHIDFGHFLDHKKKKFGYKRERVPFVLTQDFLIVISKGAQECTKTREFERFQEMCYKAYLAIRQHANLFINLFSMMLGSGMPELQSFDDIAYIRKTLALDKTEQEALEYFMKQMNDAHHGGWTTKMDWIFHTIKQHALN
T1 sequence (P27986 whole entry partner): as the sequence (P27986 whole entry partner) above
T4 sequence (O00329 whole entry): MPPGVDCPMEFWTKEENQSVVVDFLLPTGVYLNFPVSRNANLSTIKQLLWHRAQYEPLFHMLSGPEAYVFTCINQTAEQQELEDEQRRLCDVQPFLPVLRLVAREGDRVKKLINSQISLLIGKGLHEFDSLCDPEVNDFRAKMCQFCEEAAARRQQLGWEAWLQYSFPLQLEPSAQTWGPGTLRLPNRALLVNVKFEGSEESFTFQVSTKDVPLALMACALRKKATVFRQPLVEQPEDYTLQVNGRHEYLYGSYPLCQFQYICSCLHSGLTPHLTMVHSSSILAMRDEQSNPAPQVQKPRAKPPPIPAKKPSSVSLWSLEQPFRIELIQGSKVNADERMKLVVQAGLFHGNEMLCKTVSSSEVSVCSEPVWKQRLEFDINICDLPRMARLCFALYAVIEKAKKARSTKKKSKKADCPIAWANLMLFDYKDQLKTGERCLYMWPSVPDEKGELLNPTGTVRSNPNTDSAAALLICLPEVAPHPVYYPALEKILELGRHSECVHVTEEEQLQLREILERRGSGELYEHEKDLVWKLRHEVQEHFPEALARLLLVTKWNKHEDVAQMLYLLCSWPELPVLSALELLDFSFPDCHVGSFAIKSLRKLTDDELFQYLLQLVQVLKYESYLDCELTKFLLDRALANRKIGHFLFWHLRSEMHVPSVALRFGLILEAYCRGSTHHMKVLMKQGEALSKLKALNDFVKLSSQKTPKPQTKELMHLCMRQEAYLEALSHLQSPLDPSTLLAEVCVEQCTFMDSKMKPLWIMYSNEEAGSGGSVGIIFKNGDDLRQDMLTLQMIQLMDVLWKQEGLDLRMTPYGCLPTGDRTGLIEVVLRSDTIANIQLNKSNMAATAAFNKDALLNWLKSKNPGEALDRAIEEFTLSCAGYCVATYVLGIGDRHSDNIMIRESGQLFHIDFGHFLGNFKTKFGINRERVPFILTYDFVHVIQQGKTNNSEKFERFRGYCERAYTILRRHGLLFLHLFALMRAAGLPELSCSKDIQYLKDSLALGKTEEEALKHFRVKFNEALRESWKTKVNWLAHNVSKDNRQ
T4 sequence (P27986 whole entry partner): as the sequence (P27986 whole entry partner) above

On to `Cc1ccc(-c2cc(N3CCOCC3)nc(-c3cccc(O)c3)c2C#N)cc1C` [Compound 9f], for which the melting point is 117 to 120 °C (dec.). Besides, in data set [1], the IC50 is > 10000 nM. Besides, the IC50 in data set [2] was > 10000 nM. In data set [3], the IC50 was determined as 4430 nM. In data set [4], the concentration for half-maximal inhibition (IC50) came to 1330 nM.

`N#Cc1c(-c2ccc(Oc3ccccc3)cc2)cc(N2CCOCC2)nc1-c1cccc(O)c1` [Compound 9b] displayed a melting point of 240 to 242 °C. For the same molecule, the IC50 in data set [1] is 630 nM. The IC50 in data set [2] is > 10000 nM. Besides, in data set [3], the IC50 was > 10000 nM. Besides, the IC50 in data set [4] is > 10000 nM. Also, the IC50 in data set [5] worked out at 2800 nM.

As for `N#Cc1c(-c2ccncc2)cc(N2CCOCC2)nc1-c1cccc(O)c1` [Compound 9g], the melting point was 290 to 292 °C (dec.). For the same molecule, the IC50 in data set [1] amounted to 1230 nM. For the same molecule, the IC50 in data set [2] is > 10000 nM. The IC50 in data set [3] is 1560 nM. Moreover, the IC50 in data set [4] worked out at 850 nM.

In the case of `N#Cc1c(-c2cccnc2)cc(N2CCOCC2)nc1-c1cccc(O)c1` [Compound 9h], the melting point was 239 to 242 °C (dec.). In addition, in data set [1], the IC50 is 980 nM. The IC50 in data set [2] was > 10000 nM. Also, the IC50 in data set [3] was 2430 nM. Also, the IC50 in data set [4] was found to be 710 nM.

`Cc1cc(N2CCOCC2)nc(-c2cccc(O)c2)c1C#N` [Compound 10, 2-(3-Hydroxyphenyl)-6-morpholino-4-methylnicotinonitrile]: the melting point lay in the range of 195 to 197 °C. For the same molecule, in data set [1], the IC50 amounted to 1180 nM. Moreover, in data set [2], the IC50 was 1550 nM. Moreover, the IC50 in data set [3] stood at 1050 nM. In data set [4], the IC50 came to 420 nM.

As for `COc1cccc(-c2cc(N3CCOCC3)nc(-c3cccc(O)c3)c2C#N)c1` [Compound 9d], the melting point was 208 to 209 °C (dec.). Moreover, in data set [1], the IC50 stood at 630 nM. Further, the IC50 in data set [2] turned out to be 2340 nM. In data set [3], the IC50 is 1640 nM. In addition, the IC50 in data set [4] was 1090 nM.

Regarding `N#Cc1c(-c2ccccc2)cc(N2CCOCC2)nc1-c1cccc(O)c1` [Compound 9a], the melting point was 221 to 223 °C (dec.). Also, the IC50 in data set [1] came to 130 nM. For the same molecule, in data set [2], the IC50 was determined as 1990 nM. For the same molecule, in data set [3], the IC50 is > 10000 nM. The IC50 in data set [4] came out at 1220 nM.

In turn, `COc1ccc(-c2cc(N3CCOCC3)nc(-c3cccc(O)c3)c2C#N)cc1` [Compound 9c] displayed a melting point of 216 to 217 °C. Moreover, in data set [1], the IC50 was found to be 1790 nM. Moreover, the IC50 in data set [2] is > 10000 nM. In data set [3], the IC50 stood at 2180 nM. In data set [4], the half-inhibitory concentration (IC50) amounted to 1370 nM.

Molecule `COc1ccc(-c2cc(N3CCOCC3)nc(-c3cccc(O)c3)c2C#N)cc1OC` [Compound 9e] showed a melting point of 142 to 144 °C. Moreover, in data set [1], the IC50 was 830 nM. In addition, the IC50 in data set [2] came out at 6480 nM. For the same molecule, in data set [3], the IC50 came out at 2910 nM. Further, the IC50 in data set [4] stood at 900 nM.
